The text below walks through data of patent US5286648A, “A84575 antibiotics” (Eli Lilly and Company, priority 1991, dated 1994).

The subject of test [1] is culture A84575. Briefly: Resistance of culture A84575 to antibiotics (antibiotic sensitivity discs, ISP No. 2 agar). Type of test: cell-based, Streptosporangium carneum. The note with it: disc. The procedure: Resistance to antibiotics was measured by padding antibiotic sensitivity discs (Difco) onto the surface of seeded ISP No. 2 agar plates. Resistance was scored as (+) when no zone of inhibition was observed, and as (-) when a zone of inhibition was observed.

The next test deals with Haemophilus influenzae. Briefly: In vitro antibacterial activity (Table 5), MIC. Type of test: cell-based.
A further test has as its system Streptococcus A. Briefly: In vitro antibacterial activity (Table 5), MIC. Type of test: cell-based. To be noted: strain C203.
The next test concerns Streptococcus D. Put plainly: In vitro antibacterial activity (Table 5), MIC. Type of test: cell-based.
Another test relates to Staphylococcus aureus. Put plainly: In vitro antibacterial activity (Table 5), MIC. It counts as cell-based.
In test [2] the test system is Staphylococcus epidermidis. Put plainly: In vitro antibacterial activity (Table 5), MIC. It counts as cell-based, S. epidermidis.
The next test deals with Streptococcus pneumoniae. Put plainly: In vitro antibacterial activity (Table 5), MIC. It counts as cell-based, S. pneumoniae. To be noted: strain PARK.
In test [3] the test system is culture A84575. Briefly: Resistance of culture A84575 to antibiotics (antibiotic sensitivity discs, ISP No. 2 agar). To be noted: 50 μg/mL. Type of test: cell-based, Streptosporangium carneum.

In brackets after ≈: the same amount, converted by molar mass. Read-outs that look alike come from different tables or passages of the source. Where a SMILES comes first, the peptide text is derived from it. Bridges are numbered along the chain shown (N, C = ends). [ ]: non-standard residue; d: D form. The star is where a group is joined. Ileψ(thiazoline)Cys = CC[C@H](C)[C@H](N)C1=N[C@H](C(=O)*)CS1; dOrn = NCCC[C@@H](N)C(=O)O Some results are limits rather than exact numbers.

With `CO[C@H]1/C=C/O[C@@]2(C)Oc3c(C)c(O)c4c(O)c(c(/C=N/N5CCN(C)CC5)c(O)c4c3C2=O)NC(=O)/C(C)=C\C=C\[C@H](C)[C@H](O)[C@@H](C)[C@@H](O)[C@@H](C)[C@H](OC(C)=O)[C@@H]1C` [rifampin], in the test on culture A84575 [1] (5 μm), the Resistance to antibiotics entry is on record as “sensitive”.
Consider `CO/N=C(\C(=O)N[C@@H]1C(=O)N2C(C(=O)O)=C(COC(C)=O)CS[C@H]12)c1csc(N)n1` [Standard], for which the MIC is 0.015 µg/mL (≈ 0.0329 µM) with Haemophilus influenzae (Haemophilus influenzae, strain C.L., sensitive strain, read-out: MIC); “.015 µg/mL” in the test with Haemophilus influenzae (strain 76, resistant strain); 0.015 µg/mL (≈ 0.0329 µM) against Streptococcus A; 128 µg/mL (≈ 281 µM) in the test with Streptococcus D (strain 2041); more than 128 µg/mL with Streptococcus D (strain X66); 16 µg/mL (≈ 35.1 µM) in the test on Staphylococcus aureus. Further, the MIC in the test with Staphylococcus aureus (strain U41, read-out: MIC) worked out at 4 µg/mL (≈ 8.78 µM); with Staphylococcus aureus (strain X1.1, read-out: MIC), 2 µg/mL (≈ 4.39 µM); with Staphylococcus aureus (strain X400, read-out: MIC), 128 µg/mL (≈ 281 µM); in test [2] (strain 222) it was 2 µg/mL (≈ 4.39 µM); in test [2] (strain 270), 8 µg/mL (≈ 17.6 µM); against Streptococcus pneumoniae it was 0.015 µg/mL (≈ 0.0329 µM).
In the case of `CC[C@H](C)[C@H](N)C1=N[C@H](C(=O)N[C@@H](CC(C)C)C(=O)N[C@H](CCC(=O)O)C(=O)N[C@H](C(=O)N[C@H]2CCCCNC(=O)[C@H](CC(N)=O)NC(=O)[C@@H](CC(=O)O)NC(=O)[C@H](Cc3cnc[nH]3)NC(=O)[C@@H](Cc3ccccc3)NC(=O)[C@H]([C@@H](C)CC)NC(=O)[C@@H](CCCN)NC2=O)[C@@H](C)CC)CS1` [bacitracin] ({Ileψ(thiazoline)Cys}-L[dE]IK[dOrn]I[dF]H[dD]N; lactam 4-C), the Resistance to antibiotics result in the test on culture A84575 [1] (10 units) is “resistant”.
lysozyme: the Sensitivity to lysozyme entry in the test on culture A84575 [3] was “sensitive”.
Take `CC1(C)S[C@@H]2[C@H](NC(=O)Cc3ccccc3)C(=O)N2[C@H]1C(=O)O` [penicillin G]: the Resistance to antibiotics result in the test on culture A84575 [1] (10 units) is on record as “resistant”.
As to `CO[C@H]1C[C@H](O[C@H]2[C@H](C)[C@@H](O[C@@H]3O[C@H](C)C[C@H](N(C)C)[C@H]3O)[C@@H](C)C[C@@]3(CO3)C(=O)[C@H](C)[C@@H](O)[C@@H](C)[C@@H](C)OC(=O)[C@@H]2C)O[C@@H](C)[C@@H]1O` [oleandomycin], in the test on culture A84575 [1] (15 μm), the Resistance to antibiotics result is recorded as “sensitive”.
Take `CCC[C@@H]1C[C@@H](C(=O)N[C@@H]([C@H]2O[C@H](SC)[C@H](O)[C@@H](O)[C@H]2O)[C@@H](C)O)N(C)C1` [lincomycin]: the Resistance to antibiotics entry in the test with culture A84575 [1] (2 μm) is on record as “resistant”.
